In US12638439B2, “Method of using human spheroids for drug discovery” (AxoSim, Inc., priority 2019, dated 2026):
Entries after “also recorded” stand apart in the source; their conditions may differ. Where a name gives a salt, the structure may show the parent alone.

What was measured:
RTT spheroids = test: FLIPR spontaneous calcium oscillation assay of iPSC-derived cortical brain spheroids (SMART library screen); type: cell-based, human; conditions: for outcome of the SMART library screen (multivariant analysis): 298-compound SMART library on WT and RTT matured spheroids; for rescue or reversal of the RTT disease state, multi parametric plot of spheroid calcium oscillation activity / effect of the drugs on the condition (spontaneous calcium oscillations): 1 micro molar; for rescue or reversal of the RTT disease state, multi parametric plot of spheroid calcium oscillation activity: FIG. 3 and FIG. 4, compared with WT spheroids; for effect of the drugs on the condition (spontaneous calcium oscillations): WT and RTT spheroids, FIG. 4
Source text: In one embodiment, the present disclosure provides human induced pluripotent stem cells iPScs that are subsequently differentiated into human cortical neurons comprising neurons and astrocytes in approximately a 50:50 ratio. The ratio can be adjusted on a case by case basis depending on the particular disease of interest from 1 to 99% either neurons or astrocytes. The 3D spheroids are comprised of approximately 50:50 neurons to astrocytes ratio +1-10%. The methods of differentiating and forming 3 dimensional spheroids and functional testing with FLIPR optical techniques is described in copending patent application No. 62/532667. In the examples in this invention we use a disease model cell line which are known to carry genes responsible for Rett syndrome.
In the present disclosure both Wild Type (WT) and Rett Disease (RTT) cortical brain human tissue spheroids were prepared for the purpose of high throughput screening to identify therapeutic compounds that can modulate the brain activity in an attempt to revert or rescue the disease state back to near normal activity or homeostasis. For example, the cell lines employed (control or “WT” and disease “RTT”) may be from a family without and with the Rett disease phenotype.
The method disclosed herein may, in one embodiment, include manufacturing 3D spheroids in 384 well round bottom microtiter plates, see, e.g. U.S. patent application No. 62/532,667, the disclosure of which is incorporated herein. […] In the present disclosure, 6 to 14 weeks of maturation is a maturation range for testing, e.g., 8 to 10 weeks of maturation.
The oscillations being measured are from calcium flux moving into and out of the cells at ambient conditions. The oscillations are spontaneous and not generated by an external source. The measurements are conducted in real time and the data captured by using a technique called FLIPR that is well known in the prior art. […] When analyzing the data, it is important to understand that multiple factors contribute to the signal being recorded by the FLIPR software. Therefore, in the present disclosure 7 parameters are recorded to determine if the data generated from the spheroid is meaningful. The parameters measured are, e.g., peak count, peak width, average peak spacing, peak spacing standard deviation, peak decay time, peak rise time, and/or peak amplitude.
In the present disclosure, the SMART library that contained 298 compounds was used on both WT and RTT matured spheroids over several weeks and the FLIPR data collected and analyzed for potential therapeutic efficacy. The SMART (Selected Molecular Agents for Rett Therapy) library of compounds is well vetted by modern day bioinformatics methods, tightly focused on Rett syndrome and its biological causes. The library is currently housed at the University of Illinois-Chicago. […] With the goals in mind to save both time and resources and accelerate drug discovery for Rett syndrome, the compounds in the SMART library are readily available to investigators working on Rett syndrome research.

pregnant mice = conditions: given to pregnant mice; cited from earlier work
humans = conditions: 1950s and 1960s; cited from earlier work
pregnant rats = conditions: given to pregnant rats; cited from earlier work

SMILES	outcome of the SMART library screen (multivariant analysis) (RTT spheroids)	further results
CC(=O)Nc1nnc(S(N)(=O)=O)s1 [Acetazolamide]	therapeutics of interest	
CC1Nc2ccc(Cl)cc2S(=O)(=O)N1 (stereo not shown) [IDRA-21]	therapeutics of interest	
O=C(CCCCCCC(=O)Nc1ccccc1)NO [Vorinostat]		rescue or reversal of the RTT disease state, multi parametric plot of spheroid calcium oscillation activity (RTT spheroids; RTT spheroids): no effect to rescue or reverse the spontaneous calcium oscillations; effect of the drugs on the condition (spontaneous calcium oscillations) (RTT spheroids): made the condition worse
COc1cc(N)c(Cl)cc1C(=O)NC1CCN(Cc2ccccc2)CC1 [Clebopride Mal ate]	therapeutics of interest	
CCOC(=O)C1=C[C@]2(CC)CCCN3CCc4c(n1c1ccccc41)[C@@H]32 [Vinpocetine]	therapeutics of interest	
OC(CCN1CCCCC1)(c1ccccc1)C1CC2C=CC1C2 (stereo not shown) [Biperiden]	therapeutics of interest	
CN(C)CCCOc1nn(Cc2ccccc2)c2ccccc12.Cl [Benzydiamine Hydrochloride]	therapeutics of interest	
OC(CCN1CCCCC1)(c1ccccc1)C1CCCCC1 (stereo not shown) [Benzhexol Hydrochloride]	therapeutics of interest	
COc1cc(C(C)=O)ccc1OCCCN1CCC(c2noc3cc(F)ccc23)CC1 [Iloperidone]	therapeutics of interest	
O=c1n(CCCN2CCN(c3cccc(Cl)c3)CC2)nc2ccccn12 [Trazodone, Trazodone (Beneficat)]	therapeutics of interest	
Cc1nccn1CC1CCc2c(c3ccccc3n2C)C1=O (stereo not shown) [Ondansetron]	therapeutics of interest	
O=C1Nc2cc(Br)ccc2/C1=C1/Nc2ccccc2/C1=N\O [Bromoindirubin-3-oxime]	therapeutics of interest	
CN1CCC[C@@H]1Cc1c[nH]c2ccc(CCS(=O)(=O)c3ccccc3)cc12 [Eletriptan HBr Salt]	therapeutics of interest	
CC(C)COc1ccc(CNC(=O)N(Cc2ccc(F)cc2)C2CCN(C)CC2)cc1 [Pinmavanserin]	therapeutics of interest	
NCC(CC(=O)O)c1ccc(Cl)cc1 (stereo not shown) [Baclofen]	therapeutics of interest	
O=C1CCC(N2C(=O)c3ccccc3C2=O)C(=O)N1 (stereo not shown) [thalidomide]		birth defects (pregnant mice): does not cause birth defects; birth defects (humans): caused an international epidemic of birth defects; birth defects (pregnant rats): does not cause birth defects
Oc1cc(O)c2c(c1)O[C@H](c1cc(O)c(O)c(O)c1)[C@H](O)C2 [Epigallocatechin]		rescue or reversal of the RTT disease state, multi parametric plot of spheroid calcium oscillation activity (RTT spheroids; RTT spheroids): no effect to rescue or reverse the spontaneous calcium oscillations; effect of the drugs on the condition (spontaneous calcium oscillations) (RTT spheroids): made the condition worse
CC(C)n1c(=O)n(C(=O)NC2CC3CCC(C2)N3C)c2ccccc21 (stereo not shown) [BIMU-8]	therapeutics of interest	rescue or reversal of the RTT disease state, multi parametric plot of spheroid calcium oscillation activity (RTT spheroids; RTT spheroids): significant effect on reversing or rescuing the RTT disease state; rescue of spontaneous calcium peak frequency and amplitude behavior to the WT state (RTT spheroids; RTT spheroids, 2-week exposure time, FIG. 5): rescuing the oscillation activity back to WT normal behavior; also recorded: nearly rescued the WT state
CNCC[C@@H](Oc1ccccc1C)c1ccccc1 [Atomoxetine, Atomoxetine (Tomoxetine)]	therapeutics of interest	
